Measured values: patent US20020103228A1, “Composition and method for use of pyridinium derivatives in cosmetic and therapeutic applications” (TORRENT PHARMACEUTICALS LTD., priority 1999, published 2002)

Tests used:
AGE-BSA = biological target: T1, AGE-BSA (Bos taurus, UniProt P02769); test: In-vitro AGE breaking activity by ELISA; format: biochemical, Bovine; conditions: 37° C., 24 hours
T1 construct: Bovine serum albumin (fraction V) (BSA); from tissue; host or cells: bovine serum (fraction V); glycated in house with 1.6 M glucose at 37 °C for 16 weeks
Procedure: AGE breaking activity has been confirmed by the screening procedure as mentioned below:
Methods of experiment: Elisa (Enzyme Linked Immunosorbent Assay)
160 mg/ml of protein, bovine serum albumin, BSA and 1.6M glucose sugar were dissolved in phosphate buffered saline, PBS. Sodium azide was added at 0.02% concentration as a preservative. The solution was filtered asceptically through a […] filter and kept for aging at 37° C. for 16 weeks. After 16 weeks the solution was dialyzed against PBS, aliquoted and stored at −20° C.
To determine the AGE breaking activity, 10 μg/ml of the 16 weeks AGE-BSA was incubated with different concentrations of the test compounds at 37° C. for 24 hours and AGE breaking activity of the test compounds by ELISA was determined.
ELISA was performed as follows
1. Different concentrations of 16 weeks AGE-BSA were coated on a microtiter plate as standard. Each concentration is coated in triplicates.
2. The test samples were coated on microtiter plate at a concentration of 5 ng to 20 ng per well in triplicates
3. The plate was incubated at 37° C. for one hour.
4. After incubation the plate was washed with PBST (PBS with 0.05% Tween 20).
5. Blocking with 5% skimmed milk in PBS at 37° C. for one hour was done.
6. The plate was washed with PBST.
7. Primary antibody against AGE-BSA was added and the plate is incubated at 37° C. for one hour.
8. The plate was washed with PBST
9. Secondary antibody anti rabbit HRPO (Horse-Radish Per Oxidase) conjugate was added and the plate is incubated at 37° C. for one hour.
10. The plate was washed with PBST.
11. Colour development with OPD (orthophenylenediamine dihydrochloride) and hydrogen peroxide was done.
12. OD (optical density) at (450 nm reading-620 nm reading) was measured after incubation at 37° C. for 15 minutes with Microplate ELISA Reader
The breaker activity of the compounds were determined by the following formula: [formula]
OD450-620Control=Absorbance of 20 ng AGE-BSA after incubation at 37° C. for 24 hours without test compound
OD450-620Test=Absorbance of 20 ng AGE-BSA after incubation at 37° C. for 24 hours with required concentration of test compound
Using specific examples, the % AGE breaking activity was calculated and recorded in Table 2.

[1] = Free radical scavenging activity on ABTS radical cation; format: biochemical
Procedure: This method measures the relative ability of free radical scavenging substances to scavenge the ABTS^.+ i.e. 2,2-Azino-bis-(3-ethyl benzo thiazoline-6-sulfonate) radical cation as compared to a standard amount of standard or free radical scavengers antioxidants. Incubation of ABTS with Peroxidase (metmyoglobin) and hydrogen peroxide results in the production of radical cation ABTS^.+. This species is blue-green in colour and can be detected at 730 nm. Antioxidants or free radical scavengers in the added sample that causes suppression of the color to a degree that is proportional to their concentration.
Preparation of Buffer Solutions
A. Phosphate Citrate Buffer (pH 5.0). 48.5 ml of 0.1M citric acid with sufficient 0.2M disodium hydrogen phosphate to produce 100 ml.
B. Phosphate Buffer Saline (PBS): Dissolve 40.0 g of NaCl, 1.0 g of KCl, 1.0 g of KH2PO4 and 3.05 g of Na2HPO4 in 1 liter milli-Q water. Dilute 200 ml of above solution to 1 liter with milli-Q water (pH 7.4-7.6).
C. 3 μM stock solution of Peroxidase was prepared in phosphate buffer saline pH 7.4(PBS).
D. 1.08 mM stock solution of Hydrogen peroxide was prepared in phosphate buffer saline pH 7.4 (PBS).
Preparation of ABTS Stock Solution
1 tablet (10 mg) was dissolved in phosphate citrate buffer (pH 5.0).
Preparation of ABTS Working Solution
5.0 ml of ABTS stock solution was diluted with PBS to 20 ml.
Preparation of Horse Radish Peroxidase Stock Solution
320 μg of the enzyme was dissolved in 2.5 ml of PBS.
Preparation of Hydrogen Peroxide (1.08 mM) Solution
12 μl of Hydrogen Peroxide (30% w/v) was diluted to 100 ml with PBS. […]
Preparation of ABTS Radical Stock Solution
To 18 ml of ABTS stock solution, 100 μl of Horseradish Peroxidase stock solution was added.
As soon as 1.5 ml of hydrogen peroxide solution was added to the above solution, blue-green colour of the ABTS radicals appeared. This solution was incubated at 30° C. for 30 min.
Preparation of Control Solution
980 μl of ABTS radical stock solution was added to an eppendorf tube. To it was added 100 μl of various PBS solution.
Preparation of test Solution
980 μl of ABTS radical stock solutions were added to different eppendorf tubes. To it were added 100 μl of various concentrations of drug solution.
Measurement of Absorbance (O.D)
The absorbance of control and test samples was recorded immediately at 730 nm taking PBS as blank.
Calculation: The percent antioxidant activity was calculated according to the formula. % Antioxidant activity=[O.D of test sample/O.D of control*100]−100.

T1 sequence (P02769 25-607): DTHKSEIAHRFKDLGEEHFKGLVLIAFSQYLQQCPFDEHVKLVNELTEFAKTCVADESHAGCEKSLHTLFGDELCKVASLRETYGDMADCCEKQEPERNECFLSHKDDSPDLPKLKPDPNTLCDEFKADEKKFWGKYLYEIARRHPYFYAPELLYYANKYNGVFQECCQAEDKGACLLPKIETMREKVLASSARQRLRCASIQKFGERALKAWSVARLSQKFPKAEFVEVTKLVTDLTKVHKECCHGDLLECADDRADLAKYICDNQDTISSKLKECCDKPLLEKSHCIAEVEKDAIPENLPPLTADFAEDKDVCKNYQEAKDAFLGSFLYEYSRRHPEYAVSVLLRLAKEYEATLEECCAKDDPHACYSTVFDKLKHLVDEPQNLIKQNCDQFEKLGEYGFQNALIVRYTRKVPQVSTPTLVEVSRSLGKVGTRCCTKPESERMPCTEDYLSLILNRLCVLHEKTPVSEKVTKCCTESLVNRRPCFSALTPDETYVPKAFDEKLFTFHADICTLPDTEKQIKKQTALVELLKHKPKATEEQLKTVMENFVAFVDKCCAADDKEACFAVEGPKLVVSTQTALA

SMILES | % Breakage (AGE-BSA; 5 mM test compound) [%] | % Breakage (AGE-BSA; 20 mM test compound) [%] | Relative Free Radical Scavenging Activity (%) on ABTS ([1]; 11.5 μM) [%] | Relative Free Radical Scavenging Activity (%) on ABTS ([1]; 23.0 μM) [%] | Relative Free Radical Scavenging Activity (%) on ABTS ([1]; 46.0 μM) [%] | Relative Free Radical Scavenging Activity (%) on ABTS ([1]; 92.5 μM) [%] | Relative Free Radical Scavenging Activity (%) on ABTS ([1]; 925 μM) [%] | % Breakage (AGE-BSA; 10 mM test compound) [%] | % Breakage (AGE-BSA; 25 mM test compound) [%]
O=C(C[n+]1cccc(C(=O)NNC(=O)c2ccc[n+](CC(=O)c3ccccc3)c2)c1)c1ccccc1.[Br-].[Br-] [Compound 1, N,N′-bis[3-carbonyl-1-(2-phenyl-2-oxoethyl)-pyridinium]hydrazine dibromide] | 13 |  |  |  |  |  |  |  | 
CCOC(=O)C[n+]1cccc(C(=O)NCCOC(=O)c2ccccc2)c1.[Br-] [Compound 7, 1-(2-ethoxy-2-oxoethyl)-3-(2-(benzoyloxy)ethylaminocarbonyl)pyridinium bromide] |  | 36 |  |  |  |  |  |  | 
O=C(NCCOC(=O)c1ccccc1)c1ccc[n+](CC(=O)c2ccc(Cl)cc2Cl)c1.[Br-] [Compound 8, 1-(2-(2′,4′-dichlorophenyl)-2-oxoethyl)-3-(2-(benzoyloxy)ethylamino-carbonyl)pyridinium bromide] |  |  | 40.8 | 53.7 | 72.6 | 81.2 | 100 |  | 
CC(=O)OCCOC(=O)c1ccc[n+](CC(=O)c2ccccc2)c1.[Br-] [Compound 16, 1-(2-phenyl-2-oxoethyl)-3-(2-(acetoxy)ethyloxycarbonyl)pyridinium bromide] |  |  |  |  |  |  |  | 16 | 
CCOC(=O)C[n+]1cccc(C(=O)OCCOC(=O)c2ccccc2)c1.[Br-] [Compound 17, 1-(2-ethoxy-2-oxoethyl)-3-(2-(benzoyloxy)ethyloxycarbonyl)pyridinium bromide] |  |  |  |  |  |  |  | 19 | 
O=C(NCCOC(=O)c1ccccc1)c1cc[n+](CC(=O)c2cccs2)cc1.[Br-] [Compound 18, 1-(2-thien-2′-yl-2-oxoethyl)-4-(2-(benzoyloxy)ethylaminocarbonyl)pyridinium bromide] |  |  | 41.8 | 59.5 | 75.2 | 91.0 | 100 |  | 
O=C(C[n+]1cccc(C(=O)NCCOC(=O)c2ccccc2)c1)Nc1ccccc1.[Cl-] [Compound 23, 1-(2-phenylamino-2-oxoethyl)-3-((benzoyloxy)ethylaminocarbonyl)pyridinium chloride] |  |  |  |  |  |  |  | 37 | 90
Cc1ccc(S(=O)(=O)NNC(=O)c2ccc[n+](CC(=O)Nc3ccccc3)c2)cc1.[Cl-] [Compound 27, 1-(2-phenylamino-2-oxoethyl)-3-((4-methylphenyl)sulfonyl hydrazinocarbonyl)pyridinium chloride] |  |  | 43.9 | 55.5 | 75.3 | 99.6 | 100 |  | 
O=C(C[n+]1cccc(C(=O)NNS(=O)(=O)Cc2ccccc2)c1)c1ccccc1.[Br-] [Compound 31, 1-(2-phenyl-2-oxoethyl)-3-((phenylmethyl)sulfonyl hydrazinocarbonyl)pyridinium bromide] |  |  | 41.6 | 57.7 | 66.9 | 99.2 | 100 |  | 
O=C(CCC1CCCCC1)NNC(=O)c1ccc[n+](CC(=O)c2cccs2)c1.[Br-] [Compound 34, 1-(2-thien-2′-yl-2-oxoethyl)-3-((2-(1-oxo-3-cyclohexyl)-ethyl)-hydrazinocarbonyl)-pyridinium bromide] |  |  | 50.3 | 53.8 | 65.4 | 80.4 | 100 |  | 
O=C1CCCC(CCNNC(=O)c2ccc[n+](CC(=O)Nc3ccccc3)c2)C1.[Br-] (stereo not shown) [Compound 35, 1-(2-phenylamino-2-oxoethyl)-3-({2-(1-oxo-3-cyclohexyl)-ethyl}-hydrazinocarbonyl}pyridinium bromide] |  |  | 50.5 | 63.4 | 80.9 | 90.6 | 100 |  | 
O=C(NCCOC(=O)c1ccccc1)c1ccc[n+](CC(=O)c2cccs2)c1.[Br-] [Compound 36, 1-(2-thien-2′-yl-2-oxoethyl)-3-[2-(benzoyloxy)ethylaminocarbonyl]-pyridinium bromide] |  |  | 27.6 | 59.2 | 74.2 | 83.9 | 100 |  | 
O=C=Nc1ccc[n+](CC(=O)c2ccc(Cl)cc2Cl)c1.[Br-] [Compound 82, 3-Carbonylamino-1-(2-(2,4-dichlorophenyl)-2-oxoethyl)-pyridinium bromide] |  |  | 26.0 | 44.3 | 62.7 | 75.5 | 100 |  | 
CCCCNC(=O)c1ccc[n+](CC(=O)c2ccc(Cl)cc2Cl)c1.[Br-] [Compound 97, 1-(2-(2,4-Dichlorophenyl)-2-oxoethyl)-3-(n-butylamino-carbonyl)pyridinium bromide] |  |  | 16.5 | 27 | 37.8 | 44.5 | 97.8 |  | 
O=C(C[n+]1cccc(C(=O)c2ccccc2)c1)c1ccccc1.[Br-] [Compound 98, 1-(2-Phenyl-2-oxoethyl)-3-(1-phenyl-1-oxomethyl)pyridinium bromide] |  |  | 7.1 | 26.9 | 51.1 | 78.6 | 99.1 |  | 
NC(=O)c1cccnc1 [Niacinamide, reference compound] |  |  | 0.0 | 2.2 | 3.8 | 3.8 | 9.2 |  | 
